PMC7997574, “Lead Optimization of Benzoxazolone Carboxamides as Orally Bioavailable and CNS Penetrant Acid Ceramidase Inhibitors” (Journal of Medicinal Chemistry, 2020)

Legend:
GluSph (d18:1) = test: Brain GluSph levels in 4L;C* mice (neuropathic Gaucher's disease model); type: in vivo, mouse
Protocol: 4L;C* mice (C57BL/6 J/129SvEV) were randomly assigned to three treatment groups (N = 4–8 with mixed males and females) and dosed once a day i.p. with 90 or 30 mg kg^–1 of 22m or vehicle. Treatment started at 5 days of age for a duration of 14 days. The application volume was set to 10 μL per gram of body weight, and dosage was adjusted accordingly. Animals of all groups were sacrificed 1 h after the last dose, and the brain tissues and plasma were collected. The left brain containing cortex, cerebella, thalamus, and brainstem was analyzed for SphL levels by MS. Data were analyzed using the Student t test. The right brain containing cortex, cerebella, thalamus, and brainstem and plasma were analyzed for drug levels of 22m. All mice were housed under pathogen-free conditions in the animal facility, and animal experiment was performed according to the IACUC approved protocol (2018-0056) at Cincinnati Children’s Hospital Research Foundation. Wild Type (WT) (GALC+/+) and Twitcher (Twi) (GALC–/−) mice were genotyped by PCR as previously described.[58] […] The left brain containing cortex, cerebella, thalamus, and brainstem was analyzed for SphL levels by MS. Data were analyzed using the Student t test. The right brain containing cortex, cerebella, thalamus, and brainstem and plasma were analyzed for drug levels of 22m. […]

[1] = In vitro mouse brain tissue protein binding (equilibrium dialysis); type: in vitro ADME
Protocol: Studies were performed by the DMPK Group at Shanghai ChemPartner Co., Ltd., using the equilibrium dialysis method. Values are the mean of two technical replicates.

AC = biological target: T1, AC (Homo sapiens, UniProt Q13510); test: EC50 determination in primary fibroblast cells from Krabbe's disease patients; type: cell-based; design: expressed in transfected cells
T1 sequence (Q13510 22-395): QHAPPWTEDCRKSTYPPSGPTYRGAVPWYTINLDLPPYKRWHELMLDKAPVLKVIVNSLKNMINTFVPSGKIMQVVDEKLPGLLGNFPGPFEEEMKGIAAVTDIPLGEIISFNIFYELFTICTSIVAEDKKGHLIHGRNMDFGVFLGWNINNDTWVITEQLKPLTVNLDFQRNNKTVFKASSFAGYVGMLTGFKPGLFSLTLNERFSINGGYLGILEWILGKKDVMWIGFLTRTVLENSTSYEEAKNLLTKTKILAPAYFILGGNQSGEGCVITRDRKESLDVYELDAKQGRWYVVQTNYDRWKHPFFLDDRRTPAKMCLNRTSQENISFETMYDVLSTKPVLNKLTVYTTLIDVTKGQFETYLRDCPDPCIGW
Protocol: Cells were plated in a 6-well plate. After 24 h, cells were treated with 22m at different concentrations for 2 h. Next, cells were washed with PBS, and cell pellets were washed, collected, and stored at −80 °C. Finally, cell pellets were lysed, and hAC activity in cell lysates was analyzed using the same biochemical fluorogenic assay as described for compound IC50 determination. Using this methodology, EC50 was determined to be 0.41 ± 0.1 μM. The EC50 value is a mean of two independent experiments, each performed in two technical replicates.

CC(C)CNC(=O)n1c(=O)oc2cc(C3CCN(C)CC3)ccc21 [22m, N-Isobutyl-6-(1-methyl-4-piperidyl)-2-oxo-1,3-benzoxazole-3-carboxamide]
effect on brain GluSph (d18:1) (GluSph (d18:1); 30 and 90 mg kg^–1 i.p. once a day for 14 days): significantly reduces GluSph (d18:1) in the brain of 4L;C* mice in a dose-dependent manner
reduction of the GluSph levels relative to control (GluSph (d18:1); brain, 90 mg kg^–1 i.p. once a day for 14 days): 54%
Fb, u (%) brain fraction unbounded [1]: 0.70%
EC50 (AC; primary fibroblast cells from Krabbe's disease patients, 2 h incubation): 410 ± 100 nM
EC50 (AC; primary fibroblast cells of Krabbe's patients, Figure S1): 400 ± 100 nM
